Target: Amyloid-beta precursor protein (Homo sapiens, UniProt P05067)
Test: Inhibition of human amyloid beta (1 to 40) aggregation after 24 hrs by ThT fluorescence assay

Amyloid-beta precursor protein, sequence (P05067 whole entry): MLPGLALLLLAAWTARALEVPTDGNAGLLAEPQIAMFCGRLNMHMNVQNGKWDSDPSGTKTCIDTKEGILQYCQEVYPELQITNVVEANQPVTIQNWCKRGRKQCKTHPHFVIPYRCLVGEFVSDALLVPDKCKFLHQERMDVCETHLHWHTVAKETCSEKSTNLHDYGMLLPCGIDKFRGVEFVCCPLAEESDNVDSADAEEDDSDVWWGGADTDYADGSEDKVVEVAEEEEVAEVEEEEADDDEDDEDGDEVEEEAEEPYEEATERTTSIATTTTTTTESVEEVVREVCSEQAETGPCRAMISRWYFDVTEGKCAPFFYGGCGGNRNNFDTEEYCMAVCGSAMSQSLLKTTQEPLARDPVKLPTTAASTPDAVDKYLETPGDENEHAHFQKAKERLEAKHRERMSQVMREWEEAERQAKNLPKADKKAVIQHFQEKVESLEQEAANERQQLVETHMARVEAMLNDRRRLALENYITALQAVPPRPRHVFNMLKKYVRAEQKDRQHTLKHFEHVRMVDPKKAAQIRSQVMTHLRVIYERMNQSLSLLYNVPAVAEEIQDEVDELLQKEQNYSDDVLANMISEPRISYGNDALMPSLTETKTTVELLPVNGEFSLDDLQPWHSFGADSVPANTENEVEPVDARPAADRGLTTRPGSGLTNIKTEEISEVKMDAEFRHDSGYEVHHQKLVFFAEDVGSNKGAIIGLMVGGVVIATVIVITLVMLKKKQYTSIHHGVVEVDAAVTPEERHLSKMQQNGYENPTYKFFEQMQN

Row | Compound | IC50
1 | COC(=O)c1c(C)cc(O)c(C/C=C(\C)CC/C=C(\C)CCC=C(C)C)c1O | 221 µM
2 | CC(C)=CC(=O)C/C(C)=C/CC/C(C)=C/Cc1c(O)cc(C)c(C(=O)O)c1O | 151 µM
3 | CC(C)=CCC/C(C)=C/CCC1(C)C=Cc2c(O)cc(C)cc2O1 (stereo unspecified) | 68 µM
4 | COc1c(O)c(O)cc(C)c1C/C=C(\C)CC/C=C(\C)CCC=C(C)C | 29.3 µM
5 | CCCCCCCCCCCCCCC[C@@H](O)C(=O)N[C@@H](CO[C@@H]1O[C@H](CO)[C@@H](O)[C@H](O)[C@H]1O)[C@H](O)/C=C/CC/C=C(\C)CCCCCCCCC [CEREBROSIDE] | 62.7 µM
6 | CC(C)=CCC/C(C)=C/CC[C@@]1(C)C=Cc2c(cc(C)c(C(=O)O)c2O)O1 [DAURICHROMENIC ACID] | 24.7 µM
7 | CC(C)=CCC/C(C)=C/CC/C(C)=C/Cc1c(O)cc(C)cc1O [GRIFOLIN] | 149 µM

Compounds with a lower IC50, results first:

Row | IC50 | Compound
8 | 20.3 µM | CC(C)=CCC/C(C)=C/CC/C(C)=C/Cc1c(O)cc(C)c(C(=O)O)c1O [GRIFOLIC ACID]
9 | 19.9 µM | CC(C)=CCC/C(C)=C/CC/C(C)=C/Cc1c(C)cc(O)cc1O
10 | 16.7 µM | CC(C)=CCC/C(C)=C/CC/C(C)=C/Cc1c(C)cc(O)c(O)c1O
11 | 12.3 µM | COc1c(O)c(O)c(-c2c(C)c(C/C=C(\C)CC/C=C(\C)CCC=C(C)C)c(OC)c(O)c2O)c(C)c1C/C=C(\C)CC/C=C(\C)CCC=C(C)C
